Test results: ChEMBL document CHEMBL1201862, “PubChem BioAssay data set” (2004)
Calls of active or inactive are those of the source.

Legend:
[1] = OVCAR-3 cell viability loss – plate reader, dry powder samples, PAX8 inhibitor project, dose response (AID 743044); format: functional, cell-based
[2] = molecular target: Paired box protein Pax-8 (Homo sapiens, UniProt Q06710); experiment: PAX8 transcriptional activity inhibition in RMG-I – RMG-I cells, luciferase, cherry-pick, dose response (AID 687027); format: functional, cell-based;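 also: luciferase reporter driven by Pax8 target thyroperoxidase promoter measured by SteadyGlo luminescence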
Sequence of Paired box protein Pax-8 (Q06710 whole entry): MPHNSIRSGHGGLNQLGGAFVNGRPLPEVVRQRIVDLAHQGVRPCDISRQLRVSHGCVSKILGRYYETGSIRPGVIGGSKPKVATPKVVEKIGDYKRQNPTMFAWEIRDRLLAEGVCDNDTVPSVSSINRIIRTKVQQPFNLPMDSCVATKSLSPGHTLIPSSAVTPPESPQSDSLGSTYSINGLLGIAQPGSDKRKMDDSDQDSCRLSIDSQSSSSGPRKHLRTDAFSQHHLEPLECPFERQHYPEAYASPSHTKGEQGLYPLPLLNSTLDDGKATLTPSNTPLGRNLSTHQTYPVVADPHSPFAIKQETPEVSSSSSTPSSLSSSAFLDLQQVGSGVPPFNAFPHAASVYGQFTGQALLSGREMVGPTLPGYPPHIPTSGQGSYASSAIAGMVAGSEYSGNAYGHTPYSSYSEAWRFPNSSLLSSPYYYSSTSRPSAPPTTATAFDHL

[3] = A2780 cell killing – plate reader, dry powder samples, cytotoxicity control, dose response (AID 743046); format: functional, cell-based
[4] = molecular target: Galanin receptor type 3 (Homo sapiens, UniProt O60755); experiment: Fluorescence-based cell-based primary high throughput dose response assay to identify antagonists of the Galanin Receptor 3 (GalR3).; format: functional
Sequence of Galanin receptor type 3 (O60755 whole entry): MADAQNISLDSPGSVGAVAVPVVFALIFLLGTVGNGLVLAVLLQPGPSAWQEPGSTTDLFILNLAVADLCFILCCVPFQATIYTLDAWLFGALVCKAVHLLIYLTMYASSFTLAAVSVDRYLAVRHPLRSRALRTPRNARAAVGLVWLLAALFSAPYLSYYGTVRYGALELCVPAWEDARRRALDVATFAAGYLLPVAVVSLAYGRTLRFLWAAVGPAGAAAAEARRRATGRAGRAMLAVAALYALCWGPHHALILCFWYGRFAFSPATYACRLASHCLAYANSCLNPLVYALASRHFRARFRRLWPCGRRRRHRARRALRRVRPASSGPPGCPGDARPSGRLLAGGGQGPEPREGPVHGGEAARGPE

[5] = test system: BJ; experiment: BJ-TERT fibroblast viability loss – cell-based, RAS-independent, luminescence, dose response (AID 1933); format: functional; settings: Homo sapiens
[6] = DRD fibroblast viability loss – cell-based, non-viral oncogenic, luminescence, dose response (AID 1934); format: functional; settings: Homo sapiens
[7] = test system: BJ; experiment: BJ-TERT-LT-ST fibroblast viability loss – cell-based, RAS-independent, luminescence, dose response (AID 1935); format: functional; settings: Homo sapiens;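 also: BJ fibroblasts immortalized with TERT plus LT and ST oncogenes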
[8] = molecular target: COUP transcription factor 2 (Homo sapiens, UniProt P24468); experiment: Luminescence-based cell-based high throughput dose response assay to identify inhibitors of COUP-TFII (NR2F2).; format: functional;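 also: HEK293 cells transiently cotransfected with COUP-TFII expression vector and reporter; luciferase reporter luminescence driven by COUP-TFII from the pX2-168 reporter plasmid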
Sequence of COUP transcription factor 2 (P24468 whole entry): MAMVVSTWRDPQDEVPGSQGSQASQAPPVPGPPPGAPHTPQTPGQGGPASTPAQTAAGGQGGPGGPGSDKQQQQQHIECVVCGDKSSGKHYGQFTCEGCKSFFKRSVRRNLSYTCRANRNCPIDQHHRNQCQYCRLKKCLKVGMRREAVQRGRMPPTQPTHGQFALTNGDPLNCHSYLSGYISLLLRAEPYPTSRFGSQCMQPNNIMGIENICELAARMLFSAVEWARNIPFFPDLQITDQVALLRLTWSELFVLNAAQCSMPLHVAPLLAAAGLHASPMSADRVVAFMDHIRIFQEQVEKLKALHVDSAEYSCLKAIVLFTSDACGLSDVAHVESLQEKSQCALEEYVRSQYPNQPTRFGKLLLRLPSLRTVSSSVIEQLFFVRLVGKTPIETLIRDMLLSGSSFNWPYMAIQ

[9] = cells; format: functional, cell-based; settings: HEK-CNG
[10] = test system: BJ; experiment: cells; format: functional, cell-based; settings: Homo sapiens
[11] = toxicity toward HepG2 liver cells – cell-based, plate reader, cherry-pick, antagonist series, cytotoxicity control, dose response (AID 743416); format: functional
[12] = A549 cell cytotoxicity, dose response, cytotoxicity control, plate reader, cherry-pick, antagonist series (AID 743412); format: functional, cell-based
[13] = blockade of melanocortin 4 receptor signaling – cell-based, plate reader, cherry pick, counter-screen for LGR2 antagonist project, dose response (AID 743444); format: functional;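 also: transfected HEK 293 cells stimulated with alpha-MSH peptide; potency of inhibitors of the alpha-MSH evoked signal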
[14] = viability loss in HEK293 cells – cell-based, plate reader, cherry-picked samples, cytotoxicity control, dose response (AID 743446); format: functional
[15] = blockers of bursicon-stimulated LGR2 cAMP reporter – cell-based, HEK293, CRE-luciferase reporter, cherry pick, set 2, dose response (AID 743343); format: functional;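 also: transfected cells were stimulated with diluted bursicon conditioned medium after compound addition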
[16] = molecular target: NAD-dependent protein deacylase sirtuin-5, mitochondrial (Homo sapiens, UniProt Q9NXA8); experiment: sirtuin-5 deacylation blockers, concentration series – biochemical, fluorescence imaging, cherry-pick, set 5, dose response (AID 720591);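 also: desuccinylation of succinyl peptide AMC substrate read as fluorescence after trypsin release; potency of inhibitors that lower fluorescence and may act on trypsin instead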
Sequence of NAD-dependent protein deacylase sirtuin-5, mitochondrial (Q9NXA8 whole entry): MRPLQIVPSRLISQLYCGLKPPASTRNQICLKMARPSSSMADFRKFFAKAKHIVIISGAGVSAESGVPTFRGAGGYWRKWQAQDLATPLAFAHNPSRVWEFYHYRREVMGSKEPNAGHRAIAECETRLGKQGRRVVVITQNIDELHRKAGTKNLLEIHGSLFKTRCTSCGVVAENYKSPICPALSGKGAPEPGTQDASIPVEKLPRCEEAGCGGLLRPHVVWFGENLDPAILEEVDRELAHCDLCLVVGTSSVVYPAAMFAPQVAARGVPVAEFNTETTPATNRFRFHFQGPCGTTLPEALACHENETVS

[17] = reduced cellular PGC1a acetyl-lysine signal – cell-based, cherry-picked samples, dose response (AID 720514); format: functional;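 also: potency may reflect raised or lowered acetylation signal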
[18] = Luminescence Cell-Based Dose Retest to Confirm Inhibitors of Cancer Stem Cells. [Related pubchem assays (depositor defined):AID2717, AID2721]; format: functional; settings: Homo sapiens
[19] = test system: INS1; experiment: INS-1E survival protection against cytokine death – cell-based, luminescence, retest, dose response (AID 449756); format: functional; settings: Rattus norvegicus;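 also: cell death triggered by IL-1 beta plus TNF-alpha plus IFN-gamma mixture; protective hits raise ATP signal compared with cytokine alone wells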
[20] = microbe, parasite or virus in culture; format: functional; settings: Mycobacterium tuberculosis
[21] = Fluorescence-based cell-based high throughput dose response assay for inhibitors of the interaction of nucleotide-binding oligomerization domain containing 2 (NOD2) and the receptor-interacting serine-threonine kinase 2 (RIPK2).; format: functional; settings: Homo sapiens
[22] = molecular target: T1, Microphthalmia-associated transcription factor (Homo sapiens, UniProt O75030); experiment: reducers of TRPM1 reporter luminescence, concentration series – cell-based, SK-MEL-5, cherry-picked, set 3, MITF inhibitor project, dose response (AID 493073); format: functional;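 also: SK-MEL-5 melanoma cells with luciferase driven by the MITF target TRPM1 promoter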
T1 sequence (O75030 whole entry): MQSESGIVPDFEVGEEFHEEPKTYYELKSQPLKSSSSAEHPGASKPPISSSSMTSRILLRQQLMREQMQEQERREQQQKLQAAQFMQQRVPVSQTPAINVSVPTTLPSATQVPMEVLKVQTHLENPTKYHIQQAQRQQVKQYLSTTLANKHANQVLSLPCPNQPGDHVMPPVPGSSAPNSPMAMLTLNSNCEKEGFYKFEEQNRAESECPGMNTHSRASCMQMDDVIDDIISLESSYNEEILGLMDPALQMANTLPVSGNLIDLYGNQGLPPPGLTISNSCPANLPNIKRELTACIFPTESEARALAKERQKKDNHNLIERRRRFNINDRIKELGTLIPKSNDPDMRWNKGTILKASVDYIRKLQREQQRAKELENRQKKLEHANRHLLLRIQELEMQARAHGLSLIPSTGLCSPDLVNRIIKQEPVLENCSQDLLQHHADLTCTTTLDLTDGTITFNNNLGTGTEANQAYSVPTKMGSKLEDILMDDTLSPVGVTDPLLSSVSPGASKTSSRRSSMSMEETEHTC

[23] = molecular target: T2, Histone-lysine N-methyltransferase NSD2 (Homo sapiens, UniProt O96028); format: biochemical
T2 sequence (O96028 whole entry): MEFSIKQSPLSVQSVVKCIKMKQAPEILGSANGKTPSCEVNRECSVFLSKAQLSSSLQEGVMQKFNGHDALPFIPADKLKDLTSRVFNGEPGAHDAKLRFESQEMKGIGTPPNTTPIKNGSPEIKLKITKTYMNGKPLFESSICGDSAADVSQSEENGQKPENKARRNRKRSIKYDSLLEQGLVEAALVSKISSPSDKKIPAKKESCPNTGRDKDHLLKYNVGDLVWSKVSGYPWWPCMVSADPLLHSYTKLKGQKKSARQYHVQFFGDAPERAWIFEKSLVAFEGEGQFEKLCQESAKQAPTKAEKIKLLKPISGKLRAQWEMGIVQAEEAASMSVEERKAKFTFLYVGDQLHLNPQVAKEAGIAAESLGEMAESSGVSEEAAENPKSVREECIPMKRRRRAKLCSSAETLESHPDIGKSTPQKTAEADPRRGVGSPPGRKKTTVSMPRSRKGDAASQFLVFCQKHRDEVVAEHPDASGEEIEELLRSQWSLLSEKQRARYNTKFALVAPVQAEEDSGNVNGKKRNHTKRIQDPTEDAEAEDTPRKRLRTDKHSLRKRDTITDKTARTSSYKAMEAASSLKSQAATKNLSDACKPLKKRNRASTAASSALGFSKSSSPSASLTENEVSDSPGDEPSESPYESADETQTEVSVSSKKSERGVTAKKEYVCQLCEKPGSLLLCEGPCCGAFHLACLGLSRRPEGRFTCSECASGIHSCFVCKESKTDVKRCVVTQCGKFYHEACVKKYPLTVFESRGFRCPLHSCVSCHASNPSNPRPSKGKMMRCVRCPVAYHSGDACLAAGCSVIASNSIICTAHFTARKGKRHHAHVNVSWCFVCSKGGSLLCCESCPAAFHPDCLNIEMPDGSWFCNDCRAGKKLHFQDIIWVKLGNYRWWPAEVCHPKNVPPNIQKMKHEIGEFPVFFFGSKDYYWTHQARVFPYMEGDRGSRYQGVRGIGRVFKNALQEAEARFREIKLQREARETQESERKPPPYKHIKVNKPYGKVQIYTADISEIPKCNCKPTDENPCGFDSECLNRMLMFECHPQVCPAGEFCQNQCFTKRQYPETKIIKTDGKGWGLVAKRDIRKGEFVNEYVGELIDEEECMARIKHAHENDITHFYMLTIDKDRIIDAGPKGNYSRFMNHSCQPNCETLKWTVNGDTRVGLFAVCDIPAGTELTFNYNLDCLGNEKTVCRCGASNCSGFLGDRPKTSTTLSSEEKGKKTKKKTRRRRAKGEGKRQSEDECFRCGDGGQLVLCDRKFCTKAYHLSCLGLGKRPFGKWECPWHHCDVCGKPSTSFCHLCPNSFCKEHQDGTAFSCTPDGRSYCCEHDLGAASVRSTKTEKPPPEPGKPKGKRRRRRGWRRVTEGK

[24] = molecular target: Caspase-8 (Homo sapiens, UniProt Q14790); experiment: inhibitors of purified CASP8 protease – biochemical, Z-IETD-R110 fluorescence, cherry-picked samples, selectivity assay for caspase-6 inhibitor project, dose response (AID 743294)
Sequence of Caspase-8 (Q14790 217-374 limits assumed): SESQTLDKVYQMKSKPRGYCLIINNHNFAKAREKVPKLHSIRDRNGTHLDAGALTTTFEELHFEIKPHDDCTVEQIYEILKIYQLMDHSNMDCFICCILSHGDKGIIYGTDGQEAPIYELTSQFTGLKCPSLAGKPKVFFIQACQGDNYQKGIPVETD
Sequence of Caspase-8 (Q14790 385-479 limits assumed): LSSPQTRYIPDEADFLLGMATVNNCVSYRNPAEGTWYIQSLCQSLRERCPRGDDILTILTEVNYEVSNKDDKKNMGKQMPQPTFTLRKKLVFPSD

[25] = molecular target: T3, Sentrin-specific protease 8 (Homo sapiens, UniProt Q96LD8); format: functional
T3 sequence (Q96LD8 whole entry): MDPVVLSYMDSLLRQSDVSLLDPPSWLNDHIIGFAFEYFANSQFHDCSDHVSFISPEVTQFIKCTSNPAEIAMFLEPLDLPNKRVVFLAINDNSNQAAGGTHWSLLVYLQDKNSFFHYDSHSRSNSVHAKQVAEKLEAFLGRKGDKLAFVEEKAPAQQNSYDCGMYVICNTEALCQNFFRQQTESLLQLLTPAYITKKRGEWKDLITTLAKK

[26] = molecular target: T4, Caspase-6 (Homo sapiens, UniProt P55212); experiment: inhibition of CASP6 peptide cleavage – biochemical, VEID-R110 fluorescence, cherry-pick, dose response (AID 720632)
T4 sequence (P55212 whole entry): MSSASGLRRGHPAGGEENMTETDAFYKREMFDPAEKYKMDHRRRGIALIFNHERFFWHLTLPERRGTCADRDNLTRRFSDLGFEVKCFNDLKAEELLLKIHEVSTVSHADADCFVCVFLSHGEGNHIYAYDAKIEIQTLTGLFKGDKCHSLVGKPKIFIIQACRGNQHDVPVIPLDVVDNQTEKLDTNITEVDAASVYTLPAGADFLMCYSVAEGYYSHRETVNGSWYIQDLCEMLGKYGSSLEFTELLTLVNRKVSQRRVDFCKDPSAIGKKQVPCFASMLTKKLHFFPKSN

[27] = molecular target: T5, Caspase-3 (Homo sapiens, UniProt P42574); experiment: human caspase-3 protease activity blockade – biochemical, fluorescence, cherry-picked samples, selectivity assay for caspase-6 allosteric inhibitor project, dose response (AID 743291)
T5 sequence (P42574 whole entry): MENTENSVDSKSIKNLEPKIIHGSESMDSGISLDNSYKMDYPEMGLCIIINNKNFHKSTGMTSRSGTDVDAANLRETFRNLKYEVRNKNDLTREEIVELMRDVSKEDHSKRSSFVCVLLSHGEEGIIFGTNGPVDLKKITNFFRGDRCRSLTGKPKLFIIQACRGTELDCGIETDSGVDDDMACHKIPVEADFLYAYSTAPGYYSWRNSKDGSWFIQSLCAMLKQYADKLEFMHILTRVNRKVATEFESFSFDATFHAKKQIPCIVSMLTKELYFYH

[28] = molecular target: T3, Sentrin-specific protease 8; format: functional; remark: listed apart in the source
[29] = molecular target: T6, Caspase-9 (Homo sapiens, UniProt P55211); experiment: inhibitors of purified CASP9 protease – biochemical, fluorescence, plate reader, cherry-picked samples, selectivity assay for caspase-6 inhibitor project, dose response (AID 743293)
T6 sequence (P55211 whole entry): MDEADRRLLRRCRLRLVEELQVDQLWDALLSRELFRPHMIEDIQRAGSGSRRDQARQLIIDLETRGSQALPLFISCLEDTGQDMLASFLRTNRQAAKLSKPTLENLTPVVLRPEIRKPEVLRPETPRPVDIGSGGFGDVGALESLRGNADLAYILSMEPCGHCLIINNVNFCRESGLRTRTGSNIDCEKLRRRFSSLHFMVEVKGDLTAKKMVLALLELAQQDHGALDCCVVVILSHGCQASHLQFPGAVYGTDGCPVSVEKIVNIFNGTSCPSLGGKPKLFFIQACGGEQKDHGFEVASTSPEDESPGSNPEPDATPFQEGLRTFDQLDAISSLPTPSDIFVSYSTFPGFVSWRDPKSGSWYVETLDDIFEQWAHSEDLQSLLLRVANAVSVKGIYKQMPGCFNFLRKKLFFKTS

[30] = molecular target: Caspase-7 (Homo sapiens, UniProt P55210); experiment: caspase-7 enzyme inhibition, selectivity check – biochemical, DEVD-R110 fluorescence, cherry-pick, selectivity assay for caspase-6 inhibitor project, dose response (AID 743295); format: functional
Sequence of Caspase-7 (P55210 24-198 limits assumed): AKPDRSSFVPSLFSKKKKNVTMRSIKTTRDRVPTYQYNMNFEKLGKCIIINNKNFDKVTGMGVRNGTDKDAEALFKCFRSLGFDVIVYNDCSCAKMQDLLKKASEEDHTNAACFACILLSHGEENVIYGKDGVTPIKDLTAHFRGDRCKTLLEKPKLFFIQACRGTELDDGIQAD
Sequence of Caspase-7 (P55210 207-303 limits assumed): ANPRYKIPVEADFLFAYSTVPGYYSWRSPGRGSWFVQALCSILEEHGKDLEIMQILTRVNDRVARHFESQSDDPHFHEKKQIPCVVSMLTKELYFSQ

SMILES: C[C@@H]1CN([C@H](C)CO)C(=O)c2cc(NS(=O)(=O)c3ccc(Cl)cc3)ccc2O[C@@H](C)CCCCO[C@@H]1CN(C)Cc1ccc(Cl)c(Cl)c1
- AC50 [1]: 49.5 µM (active)
- AC50 [2]: 11.7 µM (active)
- AC50 [3]: 2.73 µM (active)

SMILES: COc1ccccc1N1C(C)=CC(=Cc2sc3ccccc3[n+]2C)C=C1C
- IC50 [4]: 0.128 µM (active)
- EC50 [5]: 3.07 µM (inconclusive)
- EC50 [6]: 6.24 µM (active)
- EC50 [7]: 3.16 µM (inconclusive)
- IC50 [8]: 0.617 µM (active)
- EC50 [9]: > 29.9 µM (inactive)
- EC50 [10]: 2.54 µM (active)

SMILES: COc1ccc(-n2nnnc2C(c2cc3ccccc3o2)N2CCC(n3c(O)nc4ccccc43)CC2)cc1 (centres undefined)
- AC50 [11]: 4.45 µM (active)
- AC50 [12]: 38.9 µM (active)
- IC50 [8]: 6.4 µM (active)
- AC50 [13]: 14.3 µM (active)
- AC50 [14]: 8.29 µM (active)
- AC50 [15]: 13.7 µM (active)

SMILES: COc1cc(Nc2ncc3c(n2)CCN(C(=O)Nc2ccc(C(C)C)cc2)C3)cc(OC)c1OC
- AC50 [16]: 17 µM (active)

SMILES: Cn1nnnc1Sc1ncnc2scc(-c3cc4ccccc4o3)c12
- AC50 [17]: 4.29 µM (active)
- AC50 [2]: 3.12 µM (active)
- AC50 [11]: 7.37 µM (active)
- AC50 [18]: 1.41 µM (active)
- AC50 [12]: 8.38 µM (active)
- AC50 [13]: 4.18 µM (active)
- AC50 [14]: 7.82 µM (active)
- AC50 [19]: 6 µM (active)
- AC50 [15]: 4.7 µM (active)
- CC50 [20]: 7.67 µM (active)

SMILES: Cc1ccc(NC(=O)Cn2ncc(Cl)c(Cl)c2=O)cc1S(=O)(=O)N1CCCCC1
- AC50 [17]: 7.27 µM (active)
- IC50 [21]: 2.88 µM (active)
- AC50 [2]: 4.58 µM (active)
- AC50 [22]: 13.7 µM (active)

SMILES: COc1cc(N(C(C)=O)c2ccc(O)c(C(=O)O)c2)c2ncccc2c1
- AC50 [23]: 6.27 µM (active)
- AC50 [24]: 49.5 µM (active)
- IC50 [25]: 7.7 µM (active)
- AC50 [26]: 3.48 µM (active)
- AC50 [27]: 13.8 µM (active)
- IC50 [28]: 9.87 µM (active)
- AC50 [29]: 45.4 µM (active)
- AC50 [30]: 20.1 µM (active)
